Assay: Case of a subject with familial hypertriglyceridemia: blood lipid levels on fenofibrate alone, then on concomitant Omacor and fenofibrate
Assay type: in vivo, human
Parameters: HDL-Cholesterol level / Non-HDL-Cholesterol level: unit not given here
[1] = same subject, fenofibrate alone vs one month of concomitant therapy

**Q.** For `CC(C)OC(=O)C(C)(C)Oc1ccc(C(=O)c2ccc(Cl)cc2)cc1` [Fenofibrate, 2-[4-(4-chlorobenzoyl)phenoxy]-2-methyl-propanoic acid, 1-methylethyl ester], which TG level (person, fenofibrate (Antara 130 mg QD) about 2 weeks, then plus Omacor 4 grams/day QD for one month) is on record?
**A.** Its TG level is 749 mg/dL.

**Q.** And the HDL-Cholesterol level [1]?
**A.** Its HDL-Cholesterol level is 28.

**Q.** And the Non-HDL-Cholesterol level [1]?
**A.** Its Non-HDL-Cholesterol level is 252.

**Q.** And the Total-Cholesterol level [1]?
**A.** The Total-Cholesterol level was 280 mg/dL.
